Where “and” joins values, the source holds several entries; their conditions need not be identical. Equal entries are not always repeated.
Columns and labels:
[1] = system: Staphylococcus aureus, ATCC 25923; test: Bactericidal activity of NCT with heparin in human whole blood; format: cell-based; conditions: 37° C.
Protocol: FIG. 10 presents a plot of bactericidal activity of 1% NCT with 125 IE/mL heparin in human blood against Staphylococcus aureus (ATCC 25923) at […] and 37° C. Mean values±standard error of the mean of three independent experiments. P<0.01 between NCT and control samples.
Bacteria (Staphylococcus aureus, ATCC 25923 and Escherichia coli, ATCC 11229) grown in tryptic soy broth overnight were washed twice in saline and suspended in human whole blood containing 125 IE/mL heparin. Different volumes of a saline solution of NCT sodium salt were added to the suspension so that the test samples contained 10%, 25%, 50%, and 75% blood. In addition, 100% blood plus 125 IE/mL heparin was tested at which NCT was directly dissolved in blood. The final NCT concentration after mixing blood and NCT solutions was 1% in all samples. Controls contained 100% blood plus 125 IE/mL heparin and 10%, 25%, 50% and 75% blood, respectively, in saline, plus 125 IE/mL heparin without NCT. All of the solutions were incubated at 37° C. and pH 7.36-7.44 (the pH of blood). After 1, 3, 5, 10, 15, 30, 45 and 60 minutes, aliquots of 100 μL were removed and diluted tenfold or 100-fold in 0.6% sodium thiosulfate solution to inactivate the NCT. Aliquots (50 μL) of these dilutions were spread on tryptic soy agar plates. The plates were incubated at 37° C. and colony forming units of bacteria were counted after 24 and 48 hours. […]

[2] = system: Escherichia coli (ATCC 11229); test: Bactericidal activity of NCT without and with heparin (CFU counts); format: cell-based
Protocol: FIG. 2 presents a plot of bactericidal activity of 1% NCT without and with 125 IE/mL heparin against Escherichia coli ATCC 11229 at pH 7.1 and 37° C. Mean values±standard error of the mean of three independent experiments. P>0.05 between NCT without and NCT with heparin.
NCT was dissolved in 0.1 M phosphate buffer containing either 125 IE/mL heparin or no heparin. The final NCT concentration was 1%. Various bacterial species were grown in tryptic soy broth overnight, were washed twice in saline and then suspended in the NCT and NCT/heparin solutions. The species were Staphylococcus aureus (ATCC 25923), Escherichia coli (ATCC 11229), Streptococcus pyogenes, Staphylococcus epidermidis, Pseudomonas aeruginosa, Proteus mirabilis, and methicillin-resistant Staphylococcus aureus. Controls were performed with the foregoing bacterial species suspended in 0.1 M phosphate buffer without additives and in 0.1 M phosphate buffer containing 125 IE/mL heparin. All of the solutions were incubated at 37° C. and pH 7.1. After 1, 3, 5, 8, and 10 minutes, aliquots of 100 μL were removed and diluted 10-fold or 100-fold in 0.6% sodium thiosulfate solution to inactivate the NCT. Aliquots (50 μL) of these dilutions were spread on tryptic soy agar plates. The plates were incubated at 37° C. and colony forming units of bacteria were counted after 24 and 48 hours. […]

D-Dimer = D-Dimer in citrate blood; format: biochemical, human; conditions: Example 7; for D-Dimer: individual subjects 1-11; for D-Dimer, mean value: mean of 11 subjects
Protocol: (§1) Whole blood was taken from 11 volunteers and enriched with trisodium citrate (0.3 mL of a 0.106 molar solution per 3 mL whole blood) (S-Monovette®, Sarstedt, Nümbrecht, Germany). Commercial coagulation tests (as described in Example 6) were performed with the following samples: […]

human eyes = human eyes [Ref. 13]; cited from earlier work
citrate blood = test: Activated partial thromboplastin time (aPTT), Pathromtin SL test; format: biochemical, human; conditions: for aPTT / aPTT (sec): Example 6, single volunteer; for Activated partial thromboplastin time (aPTT) / Activated partial thromboplastin time (aPTT), mean value: Example 7; for Activated partial thromboplastin time (aPTT): individual subjects 1-11; for Activated partial thromboplastin time (aPTT), mean value: mean of 11 subjects
Protocol: Whole blood was taken from volunteers and enriched with trisodium citrate (0.3 mL of a 0.106 molar solution per 3 mL whole blood) (S-Monovette®, Sarstedt, Nümbrecht, Germany). Routine coagulation tests were performed on the following samples:
The following commercial coagulation tests were performed according to the prescription of the manufacturer: prothrombin time (PT) was determined using Thromborel® S test (Dade Behring GmbH, Marburg, Germany); activated partial thromboplastin time (aPTT) was determined using Pathromtin* SL test (Dade Behring GmbH, Marburg, Germany); and thrombin time (TT) was determined using BC Thrombin Reagent test (Dade Behring GmbH, Marburg, Germany).
Whole blood was taken from a single volunteer and enriched with trisodium citrate (0.3 mL of a 0.106 molar solution per 3 mL whole blood) (S-Monovette®, Sarstedt, Nümbrecht, Germany). Portions of 1.8 mL citrate blood were mixed with 0.2 mL NCT in 0.9% saline. The following final (after dilution in blood) NCT concentrations were tested separately: 1% (55 mM); 0.5% (27.5 mM); 0.25% (13.75 mM); 0.1% (5.5 mM); 0.05% (2.75 mM); 0.025% (1.375 mM); and 0.01% (0.55 mM). A control without NCT was performed in parallel. The following commercial coagulation tests were performed according to the prescription of the manufacturer: prothrombin time (PT) was determined using Thromborel® S test (Dade Behring GmbH, Marburg, Germany), activated partial thromboplastin time (aPTT) was determined using Pathromtin* SL test (Dade Behring GmbH, Marburg, Germany); thrombin time (TT) was determined using BC Thrombin Reagent test (Dade Behring GmbH, Marburg, Germany); and fibrinogen was determined using Multifibren* U test (Dade Behring GmbH, Marburg, Germany).
as §1

mice = conditions: transtympanal injection of 0.1%, 1%, and 10% NCT, mice [Ref. 19]; cited from earlier work
Proteus mirabilis = test: Bactericidal activity of NCT without and with heparin (CFU counts); format: cell-based
[3] = system: methicillin-resistant Staphylococcus aureus; test: as above; format: cell-based
[4] = 0.1% NCT, virtually identical experiments
[5] = 1% NCT, 125 IE/mL heparin, pH 7.1, 37° C., 1-10 min

O=S(=O)(O)CCNCl [NCT, N-chlorotaurine]
bactericidal activity in blood ([1]; 1% NCT dissolved in 100% blood plus 125 IE/mL heparin): no significant bactericidal activity was detected
bactericidal activity in blood ([1]; 1% NCT in 10%, 25%, 50% and 75% blood plus 125 IE/mL heparin): demonstrated bactericidal activity
influence of heparin on the killing of bacteria [2, 4]: no statistically significant influence of heparin on the killing of bacteria
killing activity of NCT with vs without heparin [2, 5]: no difference in the killing activity
D-Dimer (D-Dimer; 0.01% NCT): 209 µg/L and 195 µg/L and 340 µg/L and 143 µg/L and 50 µg/L and 174 µg/L and 241 µg/L and 155 µg/L and 132 µg/L and 191 µg/L and 149 µg/L
D-Dimer, mean value (D-Dimer; 0.01% NCT): 179.9 µg/L
D-Dimer (D-Dimer; 0.025% NCT): 200 µg/L and 179 µg/L and 316 µg/L and 122 µg/L and 50 µg/L and 153 µg/L and 227 µg/L and 143 µg/L and 126 µg/L and 172 µg/L and 132 µg/L
D-Dimer, mean value (D-Dimer; 0.025% NCT): 165.5 µg/L
tolerability in topical and localized applications (human eyes): relatively safe and well-tolerated
activated partial thromboplastin time (citrate blood; Example 5, 1% NCT final concentration in citrate blood): above the test limits
aPTT (citrate blood; 0.01% (0.55 mM) NCT final): 30.6 s
aPTT (citrate blood; 0.025% (1.375 mM) NCT final): 37.7 s
aPTT (citrate blood; 0.05% (2.75 mM) NCT final): 71.3 s
aPTT (citrate blood; 0.1% (5.5 mM) NCT final): 371.4 s
aPTT (sec) (citrate blood; 0.25% (13.75 mM) NCT final): >limit
aPTT (sec) (citrate blood; 0.5% (27.5 mM) NCT final): >limit
aPTT (sec) (citrate blood; 1% (55 mM) NCT final): >limit
Activated partial thromboplastin time (aPTT) (citrate blood; 0.01% NCT): 39 sec (2×) and 41 sec and 32 sec and 47 sec and 37 sec (2×) and 35 sec and 40 sec and 36 sec and 31 sec
Activated partial thromboplastin time (aPTT), mean value (citrate blood; 0.01% NCT): 37.6 s
Activated partial thromboplastin time (aPTT) (citrate blood; 0.025% NCT): 93 sec and 113 sec and 49 sec and 238 sec and 142 sec and 129 sec and 91 sec (2×) and 167 sec and 70 sec and 71 sec
Activated partial thromboplastin time (aPTT), mean value (citrate blood; 0.025% NCT): 114.0 s
damage of the inner ear (mice): did not cause damage of the inner ear
influence of heparin on the killing of bacteria (Proteus mirabilis; [4]): no statistically significant influence of heparin on the killing of bacteria
killing activity of NCT with vs without heparin (Proteus mirabilis; [5]): no difference in the killing activity
influence of heparin on the killing of bacteria [3, 4]: no statistically significant influence of heparin on the killing of bacteria
killing activity of NCT with vs without heparin [3, 5]: no difference in the killing activity

From patent US20110091570A1, “Compositions and Devices for Antisepsis and Anticoagulation” (priority 2008, published 2011)
